Results reported in paper PMC12677653, “Inhibition of Tumor Lipogenesis and Growth by Peptide‐Based Targeting of SREBP Activation” (Advanced Science, 2025).

Assays:
[1] = target: T1, binding of PCK1 to Insig1 (Homo sapiens, UniProt P35558); test: Immunoprecipitation of IGF1-induced PCK1-Insig1 binding, Huh7; assay type: cell-based; set-up: expressed in transfected cells; host or cells: Huh7; details: Flag-PCK1-expressing Huh7 cells, peptide 15 µM 1 h before IGF1 100 ng/mL
T1 sequence (P35558 1-622): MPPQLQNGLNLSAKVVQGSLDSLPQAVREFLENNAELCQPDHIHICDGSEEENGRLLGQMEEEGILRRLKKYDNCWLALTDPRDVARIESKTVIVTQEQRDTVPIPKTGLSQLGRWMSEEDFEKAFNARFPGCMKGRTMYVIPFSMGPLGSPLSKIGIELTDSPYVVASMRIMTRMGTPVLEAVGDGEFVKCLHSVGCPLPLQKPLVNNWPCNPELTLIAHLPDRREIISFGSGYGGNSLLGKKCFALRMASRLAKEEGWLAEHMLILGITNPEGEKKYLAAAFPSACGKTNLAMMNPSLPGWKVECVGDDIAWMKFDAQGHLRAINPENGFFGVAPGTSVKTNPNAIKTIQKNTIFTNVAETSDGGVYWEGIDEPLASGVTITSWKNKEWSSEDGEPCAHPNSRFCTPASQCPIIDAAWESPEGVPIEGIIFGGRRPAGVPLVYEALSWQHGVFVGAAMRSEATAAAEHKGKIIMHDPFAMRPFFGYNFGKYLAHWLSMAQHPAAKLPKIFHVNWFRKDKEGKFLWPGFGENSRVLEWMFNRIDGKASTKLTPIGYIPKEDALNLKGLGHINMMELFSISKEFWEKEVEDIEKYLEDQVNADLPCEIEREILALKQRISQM
Description: Figure 1 The Insig1/2 loop 1 peptide binds to S90‐phosphorylated PCK1 and blocks PCK1‐mediated SREBP activation and tumor cell proliferation. Immunoblotting analyses were performed using the indicated antibodies; representative results from three independent experiments are shown (IP, immunoprecipitation; WB, western blot). a) Huh7 cells expressing various Insig1 (top) or Insig2 (bottom) truncation mutants were treated with or without IGF1 (100 ng mL^−1) for 1 h. b,c) Biolayer interferometry assays (Sartorius Octet) were employed to measure the binding affinity of Insig1/2 loop 1 peptide to GST‐PCK1 or GST‐PCK1 pS90 proteins. […] Statistical significance was determined by one‐way analysis of variance (ANOVA). g) Following pretreatment with Insig1/2 loop 1 peptide (15 µM) and IGF1 stimulation (100 ng mL^−1, 8 h), Huh7 cells were subjected to immunofluorescence analysis (scale bar: 10 µm). h) Quantitative PCR analysis of SREBP1 target gene GPAM in Huh7 cells pretreated with Insig1/2 loop 1 peptide (15 µM) and stimulated with IGF1 (100 ng mL^−1) for 10 h. […] Statistical significance was determined by one‐way analysis of variance (ANOVA). i) Quantitative PCR analysis of SREBP1 target gene FASN in Huh7 cells pretreated with Insig1/2 loop 1 peptide (15 µM) and stimulated with IGF1 (100 ng mL^−1) for 10 h. […]

[2] = test system: Insig1 S207 phosphorylation; test: Immunoblot of Insig1 S207 phosphorylation, HCT116; assay type: cell-based, human; details: HCT116 cells, peptide 15 μM 1 h before IGF1 100 ng/mL
Description: Cellular proteins were extracted using ice‐cold lysis buffer [50 mM Tris‐HCl (pH 7.5), 150 mM NaCl, 0.1% SDS, 1% Triton X‐100, 1 mM DTT, 0.5 mM EDTA] supplemented with protease inhibitor cocktail (Roche) and phosphatase inhibitors (Bimake). Following lysis, cell extracts were centrifuged at 13400 × g for 15 min at 4 °C to remove cellular debris. The clarified supernatants were then incubated with primary antibodies overnight at 4 °C with gentle rotation. For Flag‐tagged protein immunoprecipitation, Flag M2 magnetic beads (Sigma) were added to the lysate‐antibody mixture and incubated for an additional 4 h at 4 °C. The immunocomplexes were washed three times with lysis buffer under stringent conditions (5 min per wash with rotation). Finally, the precipitated proteins were eluted and analyzed by immunoblotting as previously described.^[ [35] ^]
h) HCT116 cells were pretreated with Insig1/2 loop1 peptide (15 μM) for 1 h before IGF1 (100 ng ml⁻¹) stimulation.

## RKKRRQRRRLYPCIDSHLGEPHKFKRE [Insig1/2 loop 1 peptide]
[1]
  IGF1-induced binding of PCK1 to Insig1: markedly inhibited
[2]
  Insig1 S207 phosphorylation: inhibited
